According to publication PMC9855970, “Cysteine Biosynthesis in Campylobacter jejuni: Substrate Specificity of CysM and the Dualism of Sulfide” (Biomolecules, 2022):

Target: T1, CysM (Cj0912) (Campylobacter jejuni, UniProt P71128)
T1 sequence (P71128 1-299): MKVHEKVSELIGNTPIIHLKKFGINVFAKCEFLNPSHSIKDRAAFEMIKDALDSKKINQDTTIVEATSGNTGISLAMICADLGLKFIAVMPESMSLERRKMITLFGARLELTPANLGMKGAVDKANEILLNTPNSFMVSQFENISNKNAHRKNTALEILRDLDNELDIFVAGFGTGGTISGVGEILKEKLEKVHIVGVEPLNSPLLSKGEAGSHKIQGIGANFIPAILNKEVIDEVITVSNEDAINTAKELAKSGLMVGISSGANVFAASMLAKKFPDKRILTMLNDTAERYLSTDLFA
Experiment: UV-Vis absorbance at […] nm of purified enzyme
Assay type: binding
Details: 100 mM Tris-HCl pH 7.4, 50 mM NaCl; co-purified, covalent internal Schiff base with lysine

Cc1ncc(COP(=O)(O)O)c(C=O)c1O [PLP, pyridoxal 5′-phosphate]
UV-Vis absorbance at 412 nm of purified enzyme: Cj0912 purified with the PLP cofactor in situ
